In US8748410B2, “Methods of treating aneurysm” (Wisconsin Alumni Research Foundation, priority 2010, dated 2014):

Legend:
[1] = tested on: calcium chloride induced AAA (CaCl2 AAA); test: calcium chloride induced AAA in mouse, aneurysm formation; type: in vivo; conditions: mice, 1.25 mg/kg i.v., after 7 days
Excerpt: FIG. 2 illustrates the effect of OLCs inhibition on mouse AAA. Representative pictures of CaCl2 AAA with intravenous (“i.v.”) saline or bisphosphonate injection. Fold increase of the maximum size 7 days after the treatment was shown. n=3, P<0.05. Initially, the inventors identified robust calcification in human AAA samples. The inventors have also identified the existence of OLCs in the medial layer of aneurismal aorta, which were barely detected in age matched aortic tissues from autopsy and stenotic disease both by tartrate-resistant acid phosphatase (“TRAP”) staining, a conventional staining for osteoclast, and immunohistochemistry for osteoclast marker, TRAP (see FIG. 1). The inventors also have identified calcification and OLCs in experimental calcium chloride induced AAA (CaCl2 AAA) in mouse. […] (see FIG. 2) The dose of pamidronate was equivalent to FDA approved dose of pamidronate for osteolytic bone lesions (90 mg/body).

[2] = tested on: pre-existing (induced) AAAs; test: pre-existing (induced) AAAs in mice, delayed treatment; type: in vivo; conditions: weekly injection started 7 days after aneurysm induction, over 5 weeks vs. saline control
Experimental: In addition, the inventors have extended their studies to cover the other major subclass of bisphosphonates (i.e., non-nitrogenous bisphosphonates) by studying the effect of etidronate (7.5 mg/kg i.v.) on aneurysm formation over 7 days (see FIG. 3B). The dose of etidronate was equivalent to FDA approved dose for Paget's disease (5-10 mg/kg). […] The bisphosphonate treatment corresponding to the data in FIG. 3A was started 1 week post surgery. The bisphosphonate treatments resulting in the data shown in FIGS. 4 (pamidronate) and 5 (etidronate) differed from the previous treatment in that they included weekly bisphosphonate administration immediately after surgery through 6 weeks post surgery.

NCCC(O)(P(=O)(O)O)P(=O)(O)O [pamidronate]
inhibition of aneurysm formation [1]: apparently complete inhibition of aneurysm formation | further growth of the aneurysm [2]: immediately halted further growth of the aneurysm
